The values below come from patent US11896592B2, “Certain triazolopyridines and triazolopyrazines, compositions thereof and methods of use therefor” (Hutchison Medipharma Limited, priority 2009, dated 2024).

Where two headings read alike, the source gives them in different places.

This test deals with T1, Recombinant human Met (c-Met) (Homo sapiens, UniProt P08581).
T1 construct: purchased Invitrogen PV3143
Kind of test: Inhibition of c-Met kinase activity using Transcreener FP assay. It counts as biochemical. To be noted: Poly E4Y substrate, 28° C. 45 min. The protocol: Compound dilution: dilute test articles to 5 folds of the testing concentration using 20% DMSO.
The mixture is kept on ice until use;
Prepare ATP standard curve stock as following:
3. Enzymatic reaction: in 96-well reaction plate
Add 5 μL of test article or 5 μL of 20% DMSO or 5 μL of 500 mM EDTA;
Add 10 μL of Enzyme/Substrate stock;
Add 10 μL of ATP Diluent to begin the enzyme reaction and mix on plate shaker;
Add 5 μL of 20% DMSO, 10 μL of assay buffer and 10 μL of ATP standard curve stock into standard curve wells;
Gently shake at 28° C. for 45 min.
4. Stop reaction and detect ADP
Prepare Detection Mix: According to the procedures described in the Assay kit, Alexa633 tracer, ADP antibody and stop & detect buffer were added into H2O and mixed thoroughly. Prepare Tracer Only control: According to the procedures described in the Assay kit, ADP Alexa633 tracer and stop & detect buffer were added to H2O and mixed throughly.
Prepare No Tracer control: According to the procedures described in the Assay kit, the stop & detect buffer was diluted with H2O;
Add 25 μL of detection mix, Tracer Only control and No Tracer control into corresponding wells, respectively;
The reaction plate was gently shaken at 28° C. for 1 h;
Florescence polarization (FP) was measured on TECAN F500. Excitation wavelength: 610 nm, Emission wavelength: 670 nm.
Compound well [ADP] represents the ADP concentration of the compound well. Positive control well [ADP] represents the ADP concentration of the 20% DMSO well. Conversion of mP value to ADP concentration is based on the formula which is determined by standard curve.
IC50: calculated using XL-Fit 2.0 software.

The mark [1] stands for this setting: read-out: IC50, inhibition of c-Met kinase activity.

T1 sequence (P08581 956-1390 limits assumed): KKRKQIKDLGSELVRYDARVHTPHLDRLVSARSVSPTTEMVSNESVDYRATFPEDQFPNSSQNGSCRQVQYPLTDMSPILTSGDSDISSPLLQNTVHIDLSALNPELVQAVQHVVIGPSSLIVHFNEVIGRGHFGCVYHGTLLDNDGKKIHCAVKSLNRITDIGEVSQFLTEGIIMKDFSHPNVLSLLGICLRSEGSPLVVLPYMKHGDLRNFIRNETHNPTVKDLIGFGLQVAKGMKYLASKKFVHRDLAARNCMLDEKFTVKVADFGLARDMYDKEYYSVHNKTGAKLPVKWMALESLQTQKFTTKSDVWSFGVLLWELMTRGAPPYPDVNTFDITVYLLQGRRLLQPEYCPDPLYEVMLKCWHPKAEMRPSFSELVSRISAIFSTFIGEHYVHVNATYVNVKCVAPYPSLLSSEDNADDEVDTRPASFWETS

For `OCCn1cc(-c2cnc3nnn(Cc4ccc5ncnn5c4)c3n2)cn1` [Compound 54], under setting [1], the IC50 was in the range of 1 to 100 nM. In the case of `CCOC(=O)Cn1cc(-c2ccc3nnn(Cc4ccc5ncccc5c4)c3n2)cn1` [Compound 65], the IC50 under setting [1] was 1 to 100 nM. For `CCOCc1cnc2ccc(Cn3nnc4ncc(-c5cnn(C)c5)nc43)cn12` [Compound 321], the IC50 under setting [1] was in the range of 1 to 100 nM. Take `c1cnc2ccc(Cn3nnc4ccc(-c5cn[nH]c5)nc43)cc2c1` [Compound 145]: the IC50 under setting [1] was 1 to 100 nM. `COCCOc1cccc(Nc2cnc3nnn(Cc4ccc5ncccc5c4)c3n2)n1` [Compound 227]: the IC50 under setting [1] was in the range of 1 to 100 nM. Turning to `COCCn1cc(-c2cnc3nnn(Cc4cc5cnccc5s4)c3n2)cn1` [Compound 23], the IC50 under setting [1] fell in the range of 100 to 1000 nM. On the same count and under the same terms, the figure for `c1cc2sc(Cn3nnc4ncc(-c5cnn(C6CCNCC6)c5)nc43)cc2cn1` [Compound 18] is 100 to 1000 nM. On the same count and under the same terms, the figure for `OCCn1cc(-c2cnc3nnn(Cc4cc5[nH]ncc5s4)c3n2)cn1` [Compound 13] is 1 to 100 nM; for `COCCn1cc(-c2ccc3nnn(Cc4c[nH]c5ncccc45)c3n2)cn1` [Compound 111] it is 1 to 100 nM; for `O=C(Cn1cc(-c2cnc3nnn(Cc4ccc5ncsc5c4)c3n2)cn1)NC1CC1` [Compound 24] it is 1 to 100 nM. Still for that read-out and setting: next, `OC1CCN(c2ccc3nnn(Cc4ccc5ncccc5c4)c3n2)C1` (centres unmarked) [Compound 246]: 1 to 100 nM. Consider `COc1cc(Nc2cnc3nnn(Cc4ccc5ncccc5c4)c3n2)ccn1` [Compound 195], for which the IC50 under setting [1] lay in the range of 1 to 100 nM.

Turning to `c1cnc2ccc(Cn3nnc4ccc(NC5CCOCC5)nc43)cc2c1` [Compound 253], under setting [1], the IC50 was in the range of 1 to 100 nM. For the compound `CN(C)Cc1cnc2ccc(Cn3nnc4ncc(-c5cnn(C)c5)nc43)cn12` [Compound 319], the IC50 under setting [1] was in the range of 1 to 100 nM. On to `CC(c1ccc2nccn2c1)n1nnc2ncc(-c3cnn(C)c3)nc21` (racemic) [Compound 331], for which the IC50 (IC50, inhibition of c-Met kinase activity) lay in the range of 1 to 100 nM. As for `COc1ccnc(Nc2cnc3nnn(Cc4ccc5ncccc5c4)c3n2)c1` [Compound 183], the IC50 under setting [1] is 1 to 100 nM. `COCCn1cc(-c2cnc3nnn(Cc4ccc5ncnn5c4)c3n2)cn1` [Compound 53]: the IC50 under setting [1] lay in the range of 100 to 1000 nM.

Take `OCCn1cc(-c2cnc3nnn(Cc4ccn5nccc5n4)c3n2)cn1` [Compound 288]: the IC50 under setting [1] lay within 100 to 1000 nM. Regarding `Cc1cnc(Nc2cnc3nnn(Cc4ccc5ncccc5c4)c3n2)s1` [Compound 176], under setting [1], the IC50 fell in the range of 1 to 100 nM. On to `c1nn(C2COC2)cc1-c1cnc2nnn(Cc3cc4[nH]ncc4s3)c2n1` [Compound 296], for which the IC50 under setting [1] fell in the range of 100 to 1000 nM. The same measure, in the same setting: next, `CC(=O)OCCn1cc(-c2ccc3nnn(Cc4ccc5ncccc5c4)c3n2)cn1` [Compound 98]: 100 to 1000 nM; `c1ccc(Nc2cnc3nnn(Cc4ccc5ncccc5c4)c3n2)nc1` [Compound 168]: 1 to 100 nM; `COCCn1cc(-c2cnc3nnn(Cc4ccn5nccc5c4)c3n2)cn1` [Compound 268]: 1 to 100 nM. In the case of `CC(c1c[nH]c2ncccc12)n1nnc2ccc(-c3cnn(CCO)c3)nc21` (centres unmarked) [Compound 113], the IC50 under setting [1] is 1 to 100 nM.

Take `OCCn1cc(-c2cnc3nnn(Cc4csc5ncccc45)c3n2)cn1` [Compound 30]: the IC50 under setting [1] is 100 to 1000 nM. Still for that read-out and setting: the figure for `COCc1cnc2ccc(C(C)n3nnc4ncc(-c5cnn(C)c5)nc43)cn12` (racemic) [Compound 318, 1-(1-(3-(methoxymethyl)imidazo[1,2-a]pyridin-6-yl)ethyl)-6-(1-methyl-1H-pyrazol-4-yl)-1H-[1,2,3]triazolo[4,5-b]pyrazine] is 1 to 100 nM.

With `COCCOc1ccc(-c2ccc3nnn(Cc4ccc5ncccc5c4)c3n2)cc1` [Compound 97], under setting [1], the IC50 was 1 to 100 nM.

For `c1cc2sc(Cn3nnc4ncc(-c5cnn(C6CCOCC6)c5)nc43)cc2cn1` [Compound 22], the IC50 under setting [1] is 100 to 1000 nM. `c1nn(C2CCNCC2)cc1-c1cnc2nnn(Cc3cc4[nH]ncc4s3)c2n1` [Compound 17]: the half-maximal inhibitory concentration (IC50) under setting [1] fell in the range of 100 to 1000 nM.

For orientation: IC50 means the concentration at which inhibition is half-maximal.
